The test system of this assay is L1210 leukemia ip in BDF1 mice, survival T/C. Kind of assay: NCI In Vivo Anticancer Drug Screen. Data for tumor model L1210 Leukemia (intraperitoneal) in B6D2F1 (BDF1) mice. Conditions: endpoint: mean survival time, higher = longer survival. In a few lines:
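Ratio derived from survival: compound-dosed mice over vehicle-dosed mice, all bearing a transplantable tumor.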

The mark [1] stands for this setting: dose: 100.0 mg/kg/injection, schedule: Q01DX001 (ip), vehicle: Klucel (hydroxypropylcellulose) (HPC).
The mark [2] stands for this setting: dose: 200.0 mg/kg/injection, schedule: Q01DX001 (ip), vehicle: Klucel (hydroxypropylcellulose) (HPC).
Where [3] appears, read: dose: 400.0 mg/kg/injection, schedule: Q01DX001 (ip), vehicle: Klucel (hydroxypropylcellulose) (HPC).
Where [4] appears, read: dose: 100.0 mg/kg/injection, schedule: Q04DX003 (ip), vehicle: Klucel (hydroxypropylcellulose) (HPC).
Where [5] appears, read: dose: 200.0 mg/kg/injection, schedule: Q04DX003 (ip), vehicle: Klucel (hydroxypropylcellulose) (HPC).
Setting [6] is: dose: 100.0 mg/kg/injection, schedule: Q04DX002 (ip), vehicle: saline.
The mark [7] stands for this setting: dose: 400.0 mg/kg/injection, schedule: Q04DX003 (ip), vehicle: Klucel (hydroxypropylcellulose) (HPC).

The structures appear in SMILES notation. Several values for one entry are separate records, joined by “and”; a condition that tells them apart may be missing. Equal entries are not always repeated. Toxic doses and inconclusive results are not listed.

For the molecule `Cc1ccc(-c2oc(-c3ccc(C)cc3)c3cc(C)c(C)cc23)cc1`, the T/C is 87 % of control under setting [1], 90 % of control under setting [2] and 88 % of control under setting [3].
For `c1ccc(-c2c(-c3ccccc3)c(-c3ccccc3)c(-c3ccc(Oc4ccc(-c5c(-c6ccccc6)c(-c6ccccc6)c(-c6ccccc6)c(-c6ccccc6)c5-c5ccccc5)cc4)cc3)c(-c3ccccc3)c2-c2ccccc2)cc1`, the T/C reads like this: (dose: 100.0 mg/kg/injection, schedule: Q01DX001 (ip), vehicle: saline with Tween-80) 92 % of control; (dose: 200.0 mg/kg/injection, schedule: Q01DX001 (ip), vehicle: saline with Tween-80) 92 % of control; (dose: 400.0 mg/kg/injection, schedule: Q01DX001 (ip), vehicle: saline with Tween-80) 100 % of control.
Take `COc1ccccc1-n1c(=O)c(N=Nc2ccccc2C)c(O)n(-c2ccccc2Cl)c1=S`: the T/C was 107 % of control (dose: 50.0 mg/kg/injection, schedule: Q01DX001 (ip), vehicle: Klucel (hydroxypropylcellulose) (HPC)); 102 % of control under setting [1]; 110 % of control under setting [2].
Consider `O=C(NCCCl)NNC(=O)c1ccccc1`, for which the T/C was 117 % of control under setting [4] and 112 % of control under setting [5].
On to `CCCC(C)(C)N`, for which the T/C was 97 % of control (dose: 25.0 mg/kg/injection, schedule: Q04DX002 (ip), vehicle: saline); 90 % of control (dose: 50.0 mg/kg/injection, schedule: Q04DX002 (ip), vehicle: saline); 103 % of control under setting [6].
On to `C1CCC(NCCNC2CCCCC2)CC1`, for which, under “dose: 75.0 mg/kg/injection, schedule: Q01DX001 (ip), vehicle: saline”, the T/C was 98 % of control.
On to `OCCC1CNCCN1.[Cl][Pd]([Cl])([Cl])[Cl]` (configuration not stated), for which the T/C was 98 % of control (dose: 100.0 mg/kg/injection, schedule: Q01DX001 (ip), vehicle: DMSO) and 91 % of control (dose: 200.0 mg/kg/injection, schedule: Q01DX001 (ip), vehicle: DMSO).
`c1ccc(CC2NC2c2ccccc2)cc1` (configuration not stated): the T/C is, setting by setting: (dose: 100.0 mg/kg/injection, schedule: Q04DX002 (ip), vehicle: Klucel (hydroxypropylcellulose) (HPC)) 92 % of control; under setting [4], 96 % of control; (dose: 200.0 mg/kg/injection, schedule: Q04DX002 (ip), vehicle: Klucel (hydroxypropylcellulose) (HPC)) 98 % of control; under setting [5], 96 % of control; under setting [7], 103 % of control.
Consider `CCCCCCCCCCCCCCCC1=NN(c2ccccc2)C(=O)C1N=Nc1ccccc1` (configuration not stated), for which the T/C was 102 % of control under setting [4], 98 % of control under setting [5] and 94 % of control under setting [7].
As for `CCC(CCC(C)C1CCC2C3CC=C4CC(O)CCC4(C)C3CCC12C)C(C)C` (configuration not stated) (tested in a mixture with another compound), the T/C (dose: 12.5 mg/kg/injection, schedule: Q#A X030 (ip), vehicle: water) was 103 % of control; the T/C (dose: 25.0 mg/kg/injection, schedule: Q01DX009 (ip), vehicle: saline with Tween-80) was 93 % of control; the T/C (dose: 25.0 mg/kg/injection, schedule: Q#A X030 (ip), vehicle: water) is 101 % of control; the T/C (dose: 50.0 mg/kg/injection, schedule: Q01DX009 (ip), vehicle: saline with Tween-80) was 89 % of control; the T/C (dose: 50.0 mg/kg/injection, schedule: Q#A X030 (ip), vehicle: water) was 92 % of control; the T/C (dose: 100.0 mg/kg/injection, schedule: Q04DX003 (ip), vehicle: saline with Tween-80) is 100 % of control. Besides, the T/C by setting is: (dose: 200.0 mg/kg/injection, schedule: Q01DX001 (ip), vehicle: water) 101 % of control; (dose: 400.0 mg/kg/injection, schedule: Q01DX001 (ip), vehicle: water) 95 % of control.
Regarding `O=C(CNC(=O)c1ccc(C(=O)NCC(=O)Nc2ccc(C3=NCCN3)cc2)cc1)Nc1ccc(C2=NCCN2)cc1`, the T/C runs as follows: (dose: 1.87 mg/kg/injection, schedule: Q01DX015 (ip), vehicle: methylcellulose (MC)) 102 % of control; (dose: 3.75 mg/kg/injection, schedule: Q01DX015 (ip), vehicle: methylcellulose (MC)) 103 % of control; (dose: 7.5 mg/kg/injection, schedule: Q01DX015 (ip), vehicle: methylcellulose (MC)) 100 % of control; (dose: 10.0 mg/kg/injection, schedule: Q01DX015 (ip), vehicle: methylcellulose (MC)) 102 % of control; (dose: 62.0 mg/kg/injection, schedule: Q01DX Z (ip), vehicle: carboxymethylcellulose (CMC)) 188 % of control; (dose: 125.0 mg/kg/injection, schedule: Q01DX Z (ip), vehicle: carboxymethylcellulose (CMC)) 233 % of control. The T/C is 154 % of control (dose: 150.0 mg/kg/injection, schedule: Q01DX001 (ip), vehicle: methylcellulose (MC)); 106 % of control (dose: 250.0 mg/kg/injection, schedule: Q01DX Z (ip), vehicle: carboxymethylcellulose (CMC)); 158 % of control (dose: 300.0 mg/kg/injection, schedule: Q01DX001 (ip), vehicle: methylcellulose (MC)); 187 % of control and 201 % of control and 207 % of control (dose: 600.0 mg/kg/injection, schedule: Q01DX001 (ip), vehicle: methylcellulose (MC)); 174 % of control and 262 % of control (dose: 900.0 mg/kg/injection, schedule: Q01DX001 (ip), vehicle: methylcellulose (MC)).
As to `CO/C(=C(/C)C(=O)O)c1c(C)cc(C)c(Br)c1C`, the T/C (dose: 75.0 mg/kg/injection, schedule: Q01DX009 (ip), vehicle: Klucel (hydroxypropylcellulose) (HPC)) was 98 % of control; the T/C (dose: 150.0 mg/kg/injection, schedule: Q01DX009 (ip), vehicle: Klucel (hydroxypropylcellulose) (HPC)) is 95 % of control; the T/C (dose: 300.0 mg/kg/injection, schedule: Q01DX009 (ip), vehicle: Klucel (hydroxypropylcellulose) (HPC)) is 109 % of control.
`O=C(c1cccc2ccccc12)N(c1ccccc1)c1ccccc1`: the T/C under setting [4] is 103 % of control.
As for `c1ccc2c(c1)ccc1oc3ccc4ccccc4c3c12`, the T/C by setting is: (dose: 18.75 mg/kg/injection, schedule: Q04DX003 (ip), vehicle: Klucel (hydroxypropylcellulose) (HPC)) 97 % of control; (dose: 37.5 mg/kg/injection, schedule: Q04DX003 (ip), vehicle: Klucel (hydroxypropylcellulose) (HPC)) 97 % of control and 98 % of control; (dose: 75.0 mg/kg/injection, schedule: Q04DX003 (ip), vehicle: Klucel (hydroxypropylcellulose) (HPC)) 101 % of control and 103 % of control; under setting [4], 103 % of control; (dose: 150.0 mg/kg/injection, schedule: Q04DX003 (ip), vehicle: Klucel (hydroxypropylcellulose) (HPC)) 104 % of control; under setting [5], 97 % of control. The T/C under setting [7] is 101 % of control.
`Nc1n[nH]c2ccccc12`: the T/C runs as follows: (dose: 50.0 mg/kg/injection, schedule: Q04DX002 (ip), vehicle: gum acacia) 104 % of control; (dose: 100.0 mg/kg/injection, schedule: Q04DX002 (ip), vehicle: gum acacia) 107 % of control; (dose: 200.0 mg/kg/injection, schedule: Q04DX002 (ip), vehicle: gum acacia) 100 % of control.
For the molecule `OB(O)c1ccccc1`, the T/C was 105 % of control (dose: 100.0 mg/kg/injection, schedule: Q01DX009 (ip), vehicle: gum acacia) and 99 % of control (dose: 200.0 mg/kg/injection, schedule: Q01DX009 (ip), vehicle: gum acacia).
Consider `CN(C)c1ccc(C=Nc2ccccc2O)cc1`, for which the T/C reads like this: (dose: 100.0 mg/kg/injection, schedule: Q01DX001 (ip), vehicle: saline) 107 % of control; (dose: 200.0 mg/kg/injection, schedule: Q01DX001 (ip), vehicle: saline) 96 % of control; (dose: 400.0 mg/kg/injection, schedule: Q01DX001 (ip), vehicle: saline) 97 % of control.
Consider `Cc1cccc(OCC2CO2)c1` (configuration not stated), for which the T/C runs as follows: under setting [6], 87 % of control; (dose: 200.0 mg/kg/injection, schedule: Q04DX002 (ip), vehicle: saline) 102 % of control; (dose: 400.0 mg/kg/injection, schedule: Q04DX002 (ip), vehicle: saline) 105 % of control.
In the case of `O=C(c1ccccc1)C1CN(C2CCCCC2)C1c1ccccc1` (configuration not stated), the T/C was 109 % of control and 97 % of control under setting [1]; 95 % of control under setting [4]; 117 % of control and 99 % of control under setting [2]; 93 % of control under setting [5]; 97 % of control and 91 % of control under setting [3]; 97 % of control under setting [7].

These data come from PubChem BioAssay AID248 (DTP/NCI, 2004).
